Data taken from ChEMBL document CHEMBL4033773, “Improving Metabolic Stability with Deuterium: The Discovery of BMT-052, a Pan-genotypic HCV NS5B Polymerase Inhibitor” (ACS Med Chem Lett, 2017).
Blank lines part the entries; values can stand above or below the compound they belong to.

Key:
[1] = Distribution constant, log D of compound at pH 6.5; type: physicochemical; conditions: buffer
Cytochrome P450 3A4 = Cytochrome P450 3A4 (Homo sapiens, UniProt P08684); test: Competitive inhibition of CYP3A4 in human liver microsomes in presence of NADPH by LC-MS/MS analysis; type: ADME
[2] = Clearance in cynomolgus monkey at 1 mg/kg, iv or 3 mg/kg, po; type: ADME, organism-based, Macaca fascicularis; conditions: in vivo
[3] = AUC in rat at 6 mg/kg, po; type: ADME, organism-based; conditions: in vivo
[4] = AUC in dog at 3 mg/kg, po; type: ADME, organism-based, Canis lupus familiaris; conditions: in vivo
[5] = Clearance in dog at 1 mg/kg, iv or 3 mg/kg, po; type: ADME, organism-based, Canis lupus familiaris; conditions: in vivo
[6] = Volume of distribution at steady state in dog at 1 mg/kg, iv or 3 mg/kg, po; type: ADME, organism-based, Canis lupus familiaris; conditions: in vivo, read-out: Vdss
[7] = Volume of distribution at steady state in rat at 2 mg/kg, iv or 6 mg/kg, po; type: ADME, organism-based; conditions: in vivo, read-out: Vdss
[8] = Clearance in rat at 2 mg/kg, iv or 6 mg/kg, po; type: ADME, organism-based; conditions: in vivo
[9] = Oral bioavailability in rat at 6 mg/kg; type: ADME, organism-based; conditions: in vivo
[10] = Volume of distribution at steady state in cynomolgus monkey at 1 mg/kg, iv or 3 mg/kg, po; type: ADME, organism-based, Macaca fascicularis; conditions: in vivo, read-out: Vdss
[11] = Oral bioavailability in dog at 6 mg/kg; type: ADME, organism-based, Canis lupus familiaris; conditions: in vivo
[12] = Oral bioavailability in cynomolgus monkey at […]; type: ADME, organism-based, Macaca fascicularis; conditions: in vivo
[13] = AUC in cynomolgus monkey at 3 mg/kg, po; type: ADME, organism-based, Macaca fascicularis; conditions: in vivo
Hepatitis C virus [14] = test: Antiviral activity against HCV genotype 1a infected in human HuH7 cells assessed as reduction in viral RNA replication after 3 days by Dual-Glo luciferase reporter gene assay; type: functional, cell-based, Hepacivirus hominis; conditions: subtype 1a, Huh-7, 72 h
Hepatitis C virus [15] = test: Antiviral activity against HCV genotype 1a infected in human HuH7 cells assessed as reduction in viral RNA replication after 3 days in presence of human serum by Dual-Glo luciferase reporter gene assay; type: functional, cell-based, Hepacivirus hominis; conditions: subtype 1a, Huh-7, 72 h

Cytochrome P450 3A4, sequence (P08684 whole entry): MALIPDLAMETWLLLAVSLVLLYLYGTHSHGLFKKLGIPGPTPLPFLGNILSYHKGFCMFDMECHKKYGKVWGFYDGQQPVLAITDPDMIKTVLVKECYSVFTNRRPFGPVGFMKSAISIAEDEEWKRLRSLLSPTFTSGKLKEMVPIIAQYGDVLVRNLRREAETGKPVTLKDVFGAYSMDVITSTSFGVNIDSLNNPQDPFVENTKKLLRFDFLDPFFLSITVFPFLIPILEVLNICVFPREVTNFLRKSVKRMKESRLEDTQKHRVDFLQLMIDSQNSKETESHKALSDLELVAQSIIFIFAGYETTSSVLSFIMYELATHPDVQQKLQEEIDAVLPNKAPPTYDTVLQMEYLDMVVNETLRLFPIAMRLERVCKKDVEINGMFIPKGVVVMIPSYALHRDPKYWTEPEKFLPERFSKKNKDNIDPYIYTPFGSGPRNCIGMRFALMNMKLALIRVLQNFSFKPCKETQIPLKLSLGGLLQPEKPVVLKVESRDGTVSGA

logD [1]: 4.43
SMILES: CNC(=O)c1c(-c2ccc(F)cc2)oc2nc(CCC(F)(F)F)c(-c3cccc(C(=O)NC(C)(C)c4ncon4)c3)cc12

IC50 (Cytochrome P450 3A4): 440 nM
SMILES: CNC(=O)c1c(-c2ccc(F)cc2)oc2nc(CCC(F)(F)F)c(-c3cc(C(=O)NC(C)(C)c4ncon4)c(=O)n(C)c3)cc12

clearance [2]: 4.7 mL/min/kg
AUC [3]: 95 µM·h
AUC [4]: 125 µM·h
clearance [5]: 1 mL/min/kg
Vd [6]: 2.1 L/kg
Vd [7]: 11 L/kg
clearance [8]: 1.6 mL/min/kg
logD [1]: 3.73
bioavailability [9]: 100%
Vd [10]: 2.3 L/kg
bioavailability [11]: 90%
bioavailability [12]: 85%
AUC [13]: 16 µM·h
SMILES: [2H]C([2H])([2H])Oc1ncc(-c2cc3c(C(=O)NC)c(-c4ccc(F)cc4)oc3nc2CCC(F)(F)F)cc1C(=O)NC(c1ncon1)(C([2H])([2H])[2H])C([2H])([2H])[2H]

EC50 (Hepatitis C virus [14]): 13 nM
EC50 (Hepatitis C virus [15]): 146 nM
SMILES: [2H]C([2H])([2H])C(NC(=O)c1cccc(-c2cc3c(C(=O)NC)c(-c4ccc(F)cc4)oc3nc2CCC(F)(F)F)c1)(c1ncon1)C([2H])([2H])[2H]
